In US7109193B2, “Tricyclic diazepines tocolytic oxytocin receptor antagonists” (Wyeth, priority 2001, dated 2006):

These compounds were tested against T1, human vasopressin V1a receptor subtype (Homo sapiens, UniProt P37288) (assay: Vasopressin binding in Chinese Hamster Ovary cell membranes expressing human vasopressin V1a subtype receptors). Conditions: 100 nM, CHO cell membranes, [3H]Manning ligand, values without parentheses.
T1 construct: host or cells: CHO cells (pZeoSV vector for the Thibonnier line)
Summary of the method: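 Membranes from CHO cells expressing human V1a receptor were incubated with [3H]Manning ligand (added as 20 μL of 8 nM) in pH 7.4 Tris buffer with MgCl2, BSA and protease inhibitors, 60 min at room temperature. Bound radioactivity was counted after filtration; values are percent inhibition at a stated concentration or IC50.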

T1 sequence (P37288 whole entry): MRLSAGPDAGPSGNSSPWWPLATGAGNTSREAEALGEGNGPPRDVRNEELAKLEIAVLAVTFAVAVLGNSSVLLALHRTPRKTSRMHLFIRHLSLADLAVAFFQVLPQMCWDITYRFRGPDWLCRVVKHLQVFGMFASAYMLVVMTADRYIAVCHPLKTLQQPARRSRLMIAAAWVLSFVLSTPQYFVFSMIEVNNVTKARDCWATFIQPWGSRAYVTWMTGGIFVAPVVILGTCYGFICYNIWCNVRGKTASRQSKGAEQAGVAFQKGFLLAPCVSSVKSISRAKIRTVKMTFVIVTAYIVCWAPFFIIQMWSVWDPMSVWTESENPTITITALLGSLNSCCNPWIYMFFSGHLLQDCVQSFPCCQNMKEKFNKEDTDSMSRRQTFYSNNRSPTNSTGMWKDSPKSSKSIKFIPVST

| Structure (SMILES) | inhibition at 0.1 µM |
| --- | --- |
| COc1cccc(-c2ccc(C(=O)N3Cc4ccc(C(=O)N5CCN(CCCN(C)C)CC5)n4Cc4ccccc43)cc2C)c1 [Example 248, {4-[3-(Dimethylamino)propyl]-1-piperazinyl}{10-[(3′-methoxy-2-methyl[1,1′-biphenyl]-4-yl)carbonyl]-10,11-dihydro-5H-pyrrolo[2,1-c][1,4]benzodiazepin-3-yl}methanone] | 17% |
| COc1cc(C(=O)N2Cc3ccc(C(=O)N4CCCN(C)CC4)n3Cc3ccccc32)ccc1-c1cccc2ccccc12 [Example 68, {10-[3-Methoxy-4-(1-naphthyl)benzoyl]-10,11-dihydro-5H-pyrrolo[2,1-c][1,4]benzodiazepin-3-yl}(4-methyl-1,4-diazepan-1-yl)methanone] | 9% |
| COc1cc(C(=O)N2Cc3ccc(C(=O)N4CCN(CCCN(C)C)CC4)n3Cc3ccccc32)ccc1-c1ccccc1C [Example 250, {4-[3-(Dimethylamino)propyl]-1-piperazinyl}{10-[(2-methoxy-2′-methyl[1,1′-biphenyl]-4-yl)carbonyl]-10,11-dihydro-5H-pyrrolo[2,1-c][1,4]benzodiazepin-3-yl}methanone] | 53% |
| COc1cc(C(=O)N2Cc3ccc(C(=O)NCCC4CCCN4C)n3Cc3ccccc32)ccc1-n1c(C)ccc1C (centres unmarked) [Example 315, 10-[4-(2,5-Dimethyl-1H-pyrrol-1-yl)-3-methoxybenzoyl]-N-[2-(1-methyl-2-pyrrolidinyl)ethyl]-10,11-dihydro-5H-pyrrolo[2,1-c][1,4]benzodiazepine-3-carboxamide] | 7% |
| COc1cccc(-c2ccc(C(=O)N3Cc4ccc(C(=O)N5CCCN(C)CC5)n4Cc4ccccc43)cc2OC)c1 [Example 70, {10-[(2,3′-Dimethoxy[1,1′-biphenyl]-4-yl)carbonyl]-10,11-dihydro-5H-pyrrolo[2,1-c][1,4]benzodiazepin-3-yl}(4-methyl-1,4-diazepan-1-yl)methanone] | 19% |
| COc1ccccc1-c1ccc(C(=O)N2Cc3ccc(C(=O)N[C@@H](CCCCNC(=O)OC(C)(C)C)C(N)=O)n3Cc3ccccc32)cc1OC [Example 303, tert-Butyl (5S)-6-amino-5-[({10-[(2,2′-dimethoxy[1,1′-biphenyl]-4-yl)carbonyl]-10,11-dihydro-5H-pyrrolo[2,1-c][1,4]benzodiazepin-3-yl}carbonyl)amino]-6-oxohexylcarbamate] | -4% |
| COc1ccccc1-c1ccc(C(=O)N2Cc3ccc(C(=O)N[C@@H]4CN5CCC4CC5)n3Cc3ccccc32)cc1C [Example 295, N-[(3S)-1-Azabicyclo[2.2.2]oct-3-yl]-10-[(2′-methoxy-2-methyl[1,1′-biphenyl]-4-yl)carbonyl]-10,11-dihydro-5H-pyrrolo[2,1-c][1,4]benzodiazepine-3-carboxamide] | 6% |
| COc1ccccc1-c1ccc(C(=O)N2Cc3ccc(C(=O)N[C@@H](Cc4c[nH]cn4)C(N)=O)n3Cc3ccccc32)cc1 [Example 285, N-[(1S)-2-Amino-1-(1H-imidazol-4-ylmethyl)-2-oxoethyl]-10-[(2′-methoxy[1,1′-biphenyl]-4-yl)carbonyl]-10,11-dihydro-5H-pyrrolo[2,1-c][1,4]benzodiazepine-3-carboxamide] | 38% |
| COc1cc(C(=O)N2Cc3cccn3Cc3ccccc32)ccc1-c1ccccc1C(F)(F)F [Example 19D, (10,11-Dihydro-5H-pyrrolo[2,1-c][1,4]benzodiazepin-10-yl)-(2-methoxy-2′-trifluoromethyl-[1,1′-biphenyl]-4-yl)-methanone] | 51% |
| COc1cc(C(=O)N2Cc3ccc(C(=O)N4CCN(C)CC4)n3Cc3ccccc32)ccc1-n1c(C)ccc1C [Example 306, {10-[4-(2,5-Dimethyl-1H-pyrrol-1-yl)-3-methoxybenzoyl]-10,11-dihydro-5H-pyrrolo[2,1-c][1,4]benzodiazepin-3-yl}(4-methyl-1-piperazinyl)methanone] | 0% |
| Cc1cc(C(=O)N2Cc3cccn3Cc3ncccc32)ccc1-c1ccccc1C(F)(F)F [Example 323F, (2-Methyl-2′-trifluoromethyl-[1,1′-biphenyl]-4-yl)-(4H,10H-3a,5,9-triaza-benzo[f]azulen-9-yl)-methanone] | 2% |
| Cc1ccccc1-c1ccc(C(=O)N2Cc3ccc(C(=O)N4CCCN(C)CC4)n3Cc3ccccc32)cc1C [Example 63, {10-[(2,2′-Dimethyl[1,1′-biphenyl]-4-yl)carbonyl]-10,11-dihydro-5H-pyrrolo[2,1-c][1,4]benzodiazepin-3-yl}(4-methyl-1,4-diazepan-1-yl)methanone] | 57% |
| C=CCN1CCN(C(=O)c2ccc3n2Cc2ccccc2N(C(=O)c2ccc(-n4c(C)ccc4C)c(OC)c2)C3)CC1 [Example 318, (4-Allyl-1-piperazinyl){10-[4-(2,5-dimethyl-1H-pyrrol-1-yl)-3-methoxybenzoyl]-10,11-dihydro-5H-pyrrolo[2,1-c][1,4]benzodiazepin-3-yl}methanone] | 5% |
| COc1ccccc1-c1ccc(C(=O)N2Cc3ccc(C(=O)n4ccnc4)n3Cc3ccccc32)cc1C [Example 292, 1H-Imidazol-1-yl-{10-[(2′-methoxy-2-methyl[1,1′-biphenyl]-4-yl)carbonyl]-10,11-dihydro-5H-pyrrolo[2,1-c][1,4]benzodiazepin-3-yl}methanone] | 6% |
| COc1cc(C(=O)N2Cc3ccc(C(=O)N4CCN(CCN(C)C)CC4)n3Cc3ccccc32)ccc1-n1c(C)ccc1C [Example 316, {4-[2-(Dimethylamino)ethyl]-1-piperazinyl}{10-[4-(2,5-dimethyl-1H-pyrrol-1-yl)-3-methoxybenzoyl]-10,11-dihydro-5H-pyrrolo[2,1-c][1,4]benzodiazepin-3-yl}methanone] | 0% |
| COc1ccccc1-c1ccc(C(=O)N2Cc3ccc(C(=O)N4CCN(CCCN(C)C)CC4)n3Cc3ccccc32)cc1OC [Example 254, {10-[(2,2′-Dimethoxy[1,1′-biphenyl]-4-yl)carbonyl]-10,11-dihydro-5H-pyrrolo[2,1-c][1,4]benzodiazepin-3-yl}{4-[3-(dimethylamino)propyl]-1-piperazinyl}methanone] | 7% |
| COc1cc(C(=O)N2Cc3ccc(C(=O)N4CCN(CCN5CCOCC5)CC4)n3Cc3ccccc32)ccc1-n1c(C)ccc1C [Example 317, {10-[4-(2,5-Dimethyl-1H-pyrrol-1-yl)-3-methoxybenzoyl]-10,11-dihydro-5H-pyrrolo[2,1-c][1,4]benzodiazepin-3-yl}{4-[2-(4-morpholinyl)ethyl]-1-piperazinyl}methanone] | 10% |
| COc1cc(C(=O)N2Cc3ccc(C(=O)N(C)CCN(C)C)n3Cc3ccccc32)ccc1-n1c(C)ccc1C [Example 309, N-[2-(Dimethylamino)ethyl]-10-[4-(2,5-dimethyl-1H-pyrrol-1-yl)-3-methoxybenzoyl]-N-methyl-10,11-dihydro-5H-pyrrolo[2,1-c][1,4]benzodiazepine-3-carboxamide] | 11% |
| COc1cc(C(=O)N2Cc3ccc(C(=O)N4CCCN(C)CC4)n3Cc3ccccc32)ccc1-n1c(C)ccc1C [Example 307, {10-[4-(2,5-Dimethyl-1H-pyrrol-1-yl)-3-methoxybenzoyl]-10,11-dihydro-5H-pyrrolo[2,1-c][1,4]benzodiazepin-3-yl}(4-methyl-1,4-diazepan-1-yl)methanone] | -7% |
| Cc1ccccc1-c1ccc(C(=O)N2Cc3ccc(C(=O)NCCCN(C)C)n3Cc3ccccc32)cc1C [Example 73, N-[3-(Dimethylamino)propyl]-10-[(2,2′-dimethyl[1,1′-biphenyl]-4-yl)carbonyl]-10,11-dihydro-5H-pyrrolo[2,1-c][1,4]benzodiazepine-3-carboxamide] | 46% |
| O=C(c1ccc(-c2ccccc2)nc1)N1Cc2cccn2Cc2ccccc21 [Example 29, (6-Phenyl-pyridin-3-yl)-[10,11-dihydro-5H-pyrrolo[2,1-c][1,4]benzodiazepin-10-yl]methanone] | 74% |
| COc1cccc(-c2cc(OC)c(C(=O)N3Cc4ccc(C(=O)N[C@@H](Cc5c[nH]cn5)C(N)=O)n4Cc4ccccc43)cc2Cl)c1 [Example 287, N-[(1S)-2-Amino-1-(1H-imidazol-4-ylmethyl)-2-oxoethyl]-10-[(6-chloro-3,3′-dimethoxy[1,1′-biphenyl]-4-yl)carbonyl]-10,11-dihydro-5H-pyrrolo[2,1-c][1,4]benzodiazepine-3-carboxamide] | 0% |
| COc1cccc(-c2ccc(C(=O)N3Cc4ccc(C(=O)N5CCN(CCCN(C)C)CC5)n4Cc4ccccc43)cc2OC)c1 [Example 255, {10-[(2,3′-Dimethoxy[1,1′-biphenyl]-4-yl)carbonyl]-10,11-dihydro-5H-pyrrolo[2,1-c][1,4]benzodiazepin-3-yl}{4-[3-(dimethylamino)propyl]-1-piperazinyl}methanone] | 53% |
| COc1ccccc1-c1ccc(C(=O)N2Cc3ccc(C(=O)N[C@H]4CN5CCC4CC5)n3Cc3ccccc32)cc1OC [Example 299, N-[(3R)-1-Azabicyclo[2.2.2]oct-3-yl]-10-[(2,2′-dimethoxy[1,1′-biphenyl]-4-yl)carbonyl]-10,11-dihydro-5H-pyrrolo[2,1-c][1,4]benzodiazepine-3-carboxamide] | 14% |
| COc1ccccc1-c1ccc(C(=O)N2Cc3ccc(C(=O)N4CCCN(C)CC4)n3Cc3ccccc32)cc1OC [Example 69, {10-[(2,2′-Dimethoxy[1,1′-biphenyl]-4-yl)carbonyl]-10,11-dihydro-5H-pyrrolo[2,1-c][1,4]benzodiazepin-3-yl}(4-methyl-1,4-diazepan-1-yl)methanone] | 8% |
| Cc1cc(C(=O)N2Cc3ccc(C(=O)N[C@H]4CN5CCC4CC5)n3Cc3ccccc32)ccc1-c1ccccc1C(F)(F)F [Example 301, N-[(3R)-1-Azabicyclo[2.2.2]oct-3-yl]-10-{[2-methyl-2′-(trifluoromethyl)[1,1′-biphenyl]-4-yl]carbonyl}-10,11-dihydro-5H-pyrrolo[2,1-c][1,4]benzodiazepine-3-carboxamide] | 1% |
